# Assay results as given in PubChem BioAssay AID330 (DTP/NCI, 2004).
# Values joined by “and” are separate entries in the source; they are usually repeats but may differ in a detail not shown here. Equal values may be shown once. Inconclusive results and toxic doses are left out.
# Tested on: P388 leukemia ip, CD2F1 mice, survival T/C
# Assay: NCI In Vivo Anticancer Drug Screen. Data for tumor model P388 Leukemia (intraperitoneal) in CD2F1 (CDF1) mice
# Details: endpoint: median survival time, higher = longer survival
# Procedure, shortened: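 Mice carrying the transplanted tumor received test compound or vehicle. Survival was recorded in each group, and the value is the treated-group measurement divided by that of the vehicle-treated control group.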
smiles,measurement,setting,value
NS(=O)(=O)OCCCCCCCOS(N)(=O)=O,T/C,"dose: 6.0 mg/kg/injection, schedule: Q01DX005 (iv), vehicle: other",109 % of control
same,T/C,"dose: 6.7 mg/kg/injection, schedule: Q04DX003 (ip), vehicle: other",121 % of control
same,T/C,"dose: 8.98 mg/kg/injection, schedule: Q01DX005 (ip), vehicle: other",122 % of control
same,T/C,"dose: 8.98 mg/kg/injection, schedule: Q01DX005 (iv), vehicle: other",112 % of control
same,T/C,"dose: 10.0 mg/kg/injection, schedule: Q04DX003 (ip), vehicle: other",119 % of control
same,T/C,"dose: 11.0 mg/kg/injection, schedule: Q03HX009 (ip), vehicle: other",160 % of control
same,T/C,"dose: 13.4 mg/kg/injection, schedule: Q01DX005 (iv), vehicle: other",118 % of control
same,T/C,"dose: 16.5 mg/kg/injection, schedule: Q03HX009 (ip), vehicle: other",171 % of control
same,T/C,"dose: 16.67 mg/kg/injection, schedule: Q01DX009 (ip), vehicle: other",168 % of control
same,T/C,"dose: 20.0 mg/kg/injection, schedule: Q01DX001 (iv), vehicle: other",105 % of control
same,T/C,"dose: 20.0 mg/kg/injection, schedule: Q01DX005 (ip), vehicle: other",150 % of control and 159 % of control
same,T/C,"dose: 22.5 mg/kg/injection, schedule: Q03HX003 (ip), vehicle: other",158 % of control
same,T/C,"dose: 24.9 mg/kg/injection, schedule: Q01DX009 (ip), vehicle: other",184 % of control
same,T/C,"dose: 25.0 mg/kg/injection, schedule: Q01DX005 (ip), vehicle: saline with Tween-80",152 % of control and 163 % of control
same,T/C,"dose: 25.0 mg/kg/injection, schedule: Q03HX009 (ip), vehicle: other",206 % of control
same,T/C,"dose: 30.0 mg/kg/injection, schedule: Q01DX001 (ip), vehicle: other",124 % of control
same,T/C,"dose: 30.0 mg/kg/injection, schedule: Q01DX001 (iv), vehicle: other",111 % of control
same,T/C,"dose: 30.0 mg/kg/injection, schedule: Q01DX005 (ip), vehicle: other",161 % of control and 181 % of control
same,T/C,"dose: 33.3 mg/kg/injection, schedule: Q04DX003 (ip), vehicle: other",164 % of control
same,T/C,"dose: 34.0 mg/kg/injection, schedule: Q03HX003 (ip), vehicle: other",174 % of control
same,T/C,"dose: 37.0 mg/kg/injection, schedule: Q03HX009 (ip), vehicle: other",232 % of control
same,T/C,"dose: 37.2 mg/kg/injection, schedule: Q01DX009 (ip), vehicle: other",222 % of control
same,T/C,"dose: 37.2 mg/kg/injection, schedule: Q01DX009 (oral), vehicle: other",124 % of control
same,T/C,"dose: 44.0 mg/kg/injection, schedule: Q01DX005 (ip), vehicle: other",192 % of control
same,T/C,"dose: 44.89 mg/kg/injection, schedule: Q01DX005 (ip), vehicle: other",194 % of control
same,T/C,"dose: 44.9 mg/kg/injection, schedule: Q01DX001 (iv), vehicle: other",112 % of control
same,T/C,"dose: 50.0 mg/kg/injection, schedule: Q03HX003 (ip), vehicle: other",210 % of control
same,T/C,"dose: 50.0 mg/kg/injection, schedule: Q04DX003 (ip), vehicle: other",185 % of control
same,T/C,"dose: 55.6 mg/kg/injection, schedule: Q01DX009 (ip), vehicle: other",123 % of control
same,T/C,"dose: 67.0 mg/kg/injection, schedule: Q01DX001 (ip), vehicle: other",151 % of control
same,T/C,"dose: 74.8 mg/kg/injection, schedule: Q04DX003 (ip), vehicle: other",212 % of control
same,T/C,"dose: 82.9 mg/kg/injection, schedule: Q01DX009 (oral), vehicle: other",109 % of control
same,T/C,"dose: 100.0 mg/kg/injection, schedule: Q01DX001 (ip), vehicle: other",164 % of control
same,T/C,"dose: 111.6 mg/kg/injection, schedule: Q04DX003 (ip), vehicle: other",210 % of control
same,T/C,"dose: 125.0 mg/kg/injection, schedule: Q01DX005 (ip), vehicle: saline with Tween-80",156 % of control
same,T/C,"dose: 150.0 mg/kg/injection, schedule: Q01DX001 (ip), vehicle: other",205 % of control
same,T/C,"dose: 200.0 mg/kg/injection, schedule: Q01DX005 (ip), vehicle: saline with Tween-80",117 % of control
COC(=O)c1c(C)ccc2c(O)c3c(cc12)C(=O)c1c2c(cc(O)c1C3=O)C1(C)OC(C)(O2)C(O)C(N(C)C)C1O (stereo not given),T/C,"dose: 25.0 mg/kg/injection, schedule: Q01DX010 (ip), vehicle: saline",100 % of control
same,T/C,"dose: 50.0 mg/kg/injection, schedule: Q01DX010 (ip), vehicle: saline",100 % of control
same,T/C,"dose: 100.0 mg/kg/injection, schedule: Q01DX010 (ip), vehicle: saline",100 % of control
same,T/C,"dose: 200.0 mg/kg/injection, schedule: Q01DX010 (ip), vehicle: saline",100 % of control
same,T/C,"dose: 400.0 mg/kg/injection, schedule: Q01DX010 (ip), vehicle: saline",100 % of control
COc1cc(NC(C)CCCN)c2ncccc2c1 (stereo not given),T/C,"dose: 12.5 mg/kg/injection, schedule: Q01DX009 (ip), vehicle: saline sonified",118 % of control
same,T/C,"dose: 25.0 mg/kg/injection, schedule: Q01DX009 (ip), vehicle: saline sonified",109 % of control
same,T/C,"dose: 50.0 mg/kg/injection, schedule: Q01DX009 (ip), vehicle: saline sonified",90 % of control
CCCCc1ccc(Nc2ccc(Nc3ccc(CCCC)cc3S(=O)(=O)O)c3c2C(=O)c2ccccc2C3=O)c(S(=O)(=O)O)c1,T/C,"dose: 50.0 mg/kg/injection, schedule: Q01DX009 (ip), vehicle: saline with Tween-80",94 % of control
same,T/C,"dose: 100.0 mg/kg/injection, schedule: Q01DX009 (ip), vehicle: saline with Tween-80",90 % of control
same,T/C,"dose: 200.0 mg/kg/injection, schedule: Q01DX009 (ip), vehicle: saline with Tween-80",94 % of control
CCN(CC)CCOCCO,T/C,"dose: 50.0 mg/kg/injection, schedule: Q01DX009 (ip), vehicle: saline",100 % of control
same,T/C,"dose: 100.0 mg/kg/injection, schedule: Q01DX009 (ip), vehicle: saline",109 % of control
same,T/C,"dose: 200.0 mg/kg/injection, schedule: Q01DX009 (ip), vehicle: saline",100 % of control
O=C1c2ccccc2C(=O)N1C/C=C\c1ccccc1,T/C,"dose: 100.0 mg/kg/injection, schedule: Q01DX001 (ip), vehicle: saline",102 % of control
same,T/C,"dose: 200.0 mg/kg/injection, schedule: Q01DX001 (ip), vehicle: saline",102 % of control
same,T/C,"dose: 400.0 mg/kg/injection, schedule: Q01DX001 (ip), vehicle: saline",107 % of control
CN=C(N)N/N=C(\c1ccccc1)c1ccc(I)cc1,T/C,"dose: 25.0 mg/kg/injection, schedule: Q04DX002 (ip), vehicle: saline with Tween-80",104 % of control
same,T/C,"dose: 50.0 mg/kg/injection, schedule: Q04DX002 (ip), vehicle: saline with Tween-80",107 % of control
same,T/C,"dose: 100.0 mg/kg/injection, schedule: Q04DX002 (ip), vehicle: saline with Tween-80",107 % of control
OC1N2CCSC2=NC1(c1ccccc1)c1ccccc1 (stereo not given),T/C,"dose: 18.75 mg/kg/injection, schedule: Q04DX003 (ip), vehicle: Klucel (hydroxypropylcellulose) (HPC)",107 % of control
same,T/C,"dose: 37.5 mg/kg/injection, schedule: Q04DX003 (ip), vehicle: Klucel (hydroxypropylcellulose) (HPC)",95 % of control
same,T/C,"dose: 75.0 mg/kg/injection, schedule: Q04DX003 (ip), vehicle: Klucel (hydroxypropylcellulose) (HPC)",100 % of control
same,T/C,"dose: 150.0 mg/kg/injection, schedule: Q04DX003 (ip), vehicle: Klucel (hydroxypropylcellulose) (HPC)",110 % of control
same,T/C,"dose: 300.0 mg/kg/injection, schedule: Q04DX003 (ip), vehicle: Klucel (hydroxypropylcellulose) (HPC)",93 % of control
Nc1nc(N)c(-c2cccc(Cl)c2)c(CBr)n1,T/C,"dose: 12.5 mg/kg/injection, schedule: Q01DX009 (ip), vehicle: saline with Tween-80",113 % of control
same,T/C,"dose: 25.0 mg/kg/injection, schedule: Q01DX009 (ip), vehicle: saline with Tween-80",114 % of control
COc1cccc2c1C(=O)c1c(O)c3c(c(O)c1C2=O)C[C@@](O)(c1csc(N2CCN(C)CC2)n1)C[C@@H]3OC1CC(N)C(O)C(C)O1 (stereo not given in full),T/C,"dose: 0.39 mg/kg/injection, schedule: Q01DX009 (ip), vehicle: water",113 % of control
same,T/C,"dose: 0.78 mg/kg/injection, schedule: Q01DX009 (ip), vehicle: water",122 % of control
same,T/C,"dose: 1.56 mg/kg/injection, schedule: Q01DX009 (ip), vehicle: water",155 % of control
same,T/C,"dose: 3.13 mg/kg/injection, schedule: Q01DX009 (ip), vehicle: water",158 % of control
same,T/C,"dose: 12.5 mg/kg/injection, schedule: Q01DX009 (ip), vehicle: water",122 % of control
COc1cc2c(c(OC)c1O)-c1ccc(SC)c(=O)cc1C(NC(C)=O)CC2 (stereo not given),T/C,"dose: 1.25 mg/kg/injection, schedule: Q01DX009 (ip), vehicle: saline",117 % of control
COc1cccc2c1C(=O)c1c(O)c3c(c(O)c1C2=O)CC(O)(C(C)=O)CC3OC1CCN(c2ccccc2)CC(C)O1 (stereo not given),T/C,"dose: 3.13 mg/kg/injection, schedule: Q04DX003 (ip), vehicle: distilled water + Tween-80",96 % of control
same,T/C,"dose: 6.25 mg/kg/injection, schedule: Q04DX003 (ip), vehicle: distilled water + Tween-80",98 % of control
same,T/C,"dose: 12.5 mg/kg/injection, schedule: Q04DX003 (ip), vehicle: distilled water + Tween-80",100 % of control
same,T/C,"dose: 25.0 mg/kg/injection, schedule: Q04DX003 (ip), vehicle: distilled water + Tween-80",98 % of control
same,T/C,"dose: 50.0 mg/kg/injection, schedule: Q04DX003 (ip), vehicle: distilled water + Tween-80",105 % of control
